The test has as its target T1, abc isoform of human TMEM16A channel expressed in CHO cells (Homo sapiens, UniProt Q5XXA6, DEL476-501).
T1 construct: expressed in transfected cells; host or cells: CHO cells, doxycycline-inducible expression under Blasticidin/Zeocin selection
T1 sequence (Q5XXA6 with tags, fused parts or gaps isoform Q5XXA6-5 DEL539-564): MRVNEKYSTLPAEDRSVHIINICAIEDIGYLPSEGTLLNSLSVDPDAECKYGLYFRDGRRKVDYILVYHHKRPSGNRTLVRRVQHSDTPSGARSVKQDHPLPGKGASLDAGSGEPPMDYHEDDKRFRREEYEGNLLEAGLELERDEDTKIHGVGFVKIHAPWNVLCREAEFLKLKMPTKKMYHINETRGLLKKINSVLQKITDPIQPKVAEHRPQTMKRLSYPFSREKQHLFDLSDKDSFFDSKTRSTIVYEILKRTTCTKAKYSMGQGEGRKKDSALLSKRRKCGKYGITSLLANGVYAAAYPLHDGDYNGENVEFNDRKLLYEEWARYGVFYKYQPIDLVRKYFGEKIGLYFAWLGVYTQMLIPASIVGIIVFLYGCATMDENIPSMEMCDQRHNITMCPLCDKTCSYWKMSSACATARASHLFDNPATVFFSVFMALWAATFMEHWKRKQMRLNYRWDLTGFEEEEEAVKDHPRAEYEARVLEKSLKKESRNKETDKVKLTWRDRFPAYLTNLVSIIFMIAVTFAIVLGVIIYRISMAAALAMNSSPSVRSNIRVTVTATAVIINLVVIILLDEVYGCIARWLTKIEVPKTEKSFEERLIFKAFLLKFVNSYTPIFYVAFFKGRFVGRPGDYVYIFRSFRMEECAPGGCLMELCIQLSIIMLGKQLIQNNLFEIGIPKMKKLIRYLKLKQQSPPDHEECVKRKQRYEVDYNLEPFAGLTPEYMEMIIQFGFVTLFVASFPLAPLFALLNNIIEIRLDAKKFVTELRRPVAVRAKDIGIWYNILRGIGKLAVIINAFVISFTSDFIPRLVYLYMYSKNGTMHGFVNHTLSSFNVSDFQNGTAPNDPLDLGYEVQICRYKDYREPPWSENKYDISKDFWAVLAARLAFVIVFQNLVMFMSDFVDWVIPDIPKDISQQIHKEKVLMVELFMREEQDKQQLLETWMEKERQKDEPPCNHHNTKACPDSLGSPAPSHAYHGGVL
The experiment in a line: Automated patch clamping (QPatch) assay to measure TMEM16A activity in whole-cell. The format is cell-based. As to conditions: for pEC50: CHO cells expressing human TMEM16A (abc), whole-cell automated patch clamp, Hill fit, read-out: TMEM16A QPATCH assay EC50 V3 EC50; for Emax: CHO, maximum current at highest dose relative to reference potentiator at maximal concentration (upper limit) and vehicle (lower limit), read-out: TMEM16A QPATCH assay EC50 V3 Assay Window (% TMEM16A max activation). In a few lines:
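Whole-cell currents were recorded by planar automated patch clamp from induced CHO cells (doxycycline 1 μg/mL, 18-24 h), using a −70 mV hold, +70 mV step and −90 to +70 mV ramp. Values: Hill-fitted EC50, and activation scaled between vehicle current and reference-potentiator maximum; 0.3% DMSO final.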
(The patch-clamp technique gives a direct electrical read-out from membranes.)

Structures are written as SMILES. pEC50: −log10 of the molar value.

As for `COC(=O)[C@@H](NC(=O)c1cnc(-c2cccc(-c3cc(C(=O)NC(C4CC4)C4CC4)n(CCO)n3)c2)o1)C(C)C` [Example 4.3, (S)-Methyl 2-(2-(3-(5-((Dicyclopropylmethyl)Carbamoyl)-1-(2-Hydroxyethyl)-1H-Pyrazol-3-Yl)Phenyl)Oxazole-5-Carboxamido)-3-Methylbutanoate], the pEC50 was 7.05 and the Emax amounted to 167%.

For `CCOC(=O)[C@@H](NC(=O)c1cnc(-c2cccc(-c3cc(C(=O)NC(C4CC4)C4CC4)n(CCO)n3)c2)o1)C(C)C` [Example 4.4, (S)-Ethyl 2-(2-(3-(5-((Dicyclopropylmethyl)Carbamoyl)-1-(2-Hydroxyethyl)-1 H-Pyrazol-3-Yl)Phenyl)Oxazole-5-Carboxamido)-3-Methylbutanoate], the pEC50 is 6.89 and the Emax is 172%.

Consider `CCOC(=O)[C@@H](NC(=O)c1cnc(-c2cccc(-c3cc(C(=O)NC(C4CC4)C4CC4)n(CCCO)n3)c2)o1)C(C)C` [Example 4.5, (S)-Ethyl 2-(2-(3-(5-((Dicyclopropylmethyl)Carbamoyl)-1-(3-Hydroxypropyl)-1 H-Pyrazol-3-Yl)Phenyl)Oxazole-5-Carboxamido)-3-Methylbutanoate], for which the pEC50 was 6.92 and the Emax turned out to be 154%.

Regarding `CCOC(=O)[C@@H](NC(=O)c1cc(-c2cccc(-c3ncc(C(=O)NC(CC)CC)o3)c2)nn1CCO)C(C)C` [Example 5.0, (S)-ethyl 2-(1-(2-hydroxyethyl)-3-(3-(5-(pentan-3-ylcarbamoyl)oxazol-2-yl)phenyl)-1 H-pyrazole-5-carboxamido)-3-methylbutanoate], the pEC50 is 7.40 and the Emax came to 110%.

As to `CCC(CC)NC(=O)c1cnc(-c2cccc(-c3cc(C(=O)N[C@H](C)C4CC4)n(CCO)n3)c2)o1` [Example 5.1, (R)-2-(3-(5-((1-Cyclopropylethyl)Carbamoyl)-1-(2-Hydroxyethyl)-1H-Pyrazol-3-Yl)Phenyl)-N-(Pentan-3-Yl)Oxazole-5-Carboxamide], the pEC50 is 6.49 and the Emax was determined as 125%.

As to `O=C(NC1CCCC1)c1cnc(-c2cccc(-c3cc(C(=O)NC4CCCC4)n(CCCO)n3)c2)o1` [Example 5.2, N-Cyclopentyl-2-(3-(5-(Cyclopentylcarbamoyl)-1-(3-Hydroxypropyl)-1H-Pyrazol-3-Yl)Phenyl)Oxazole-5-Carboxamide], the pEC50 is 6.08 and the Emax amounted to 201%.

For the molecule `CCOC(=O)[C@@H](NC(=O)c1cnc(-c2cccc(-c3cc(C(=O)NC(CC)CC)n(CCN4CCOCC4)n3)c2)o1)C(C)C` [Example 6.0, (S)-ethyl 3-methyl-2-(2-(3-(1-(2-morpholinoethyl)-5-(pentan-3-ylcarbamoyl)-1H-pyrazol-3-yl)phenyl)oxazole-5-carboxamido)butanoate], the pEC50 is 6.51 and the Emax is 90%.

With `COC(=O)[C@@H](NC(=O)c1cnc(-c2cccc(-c3cc(C(=O)NC(C4CC4)C4CC4)n(CC(O)C(F)(F)F)n3)c2)o1)C(C)C` (stereo partly drawn) [Example 6.1, (2S)-Methyl 2-(2-(3-(5-((Dicyclopropylmethyl)Carbamoyl)-1-(3,3,3-Trifluoro-2-Hydroxypropyl)-1H-Pyrazol-3-Yl)Phenyl)Oxazole-5-Carboxamido)-3-Methylbutanoate], the pEC50 was 6.92 and the Emax turned out to be 220%.

For `CCC(CC)NC(=O)c1cnc(-c2cccc(-c3cc(C(=O)N[C@@H](C)C4CC4)n(C)n3)c2)o1` [Example 6.2, (S)-2-(3-(5-((1-Cyclopropylethyl)Carbamoyl)-1-Methyl-1H-Pyrazol-3-Yl)Phenyl)-N-(Pentan-3-Yl)Oxazole-5-Carboxamide], the pEC50 was 7.30 and the Emax was determined as 131%.

For the molecule `C[C@H](NC(=O)c1cnc(-c2cccc(-c3cc(C(=O)N[C@@H](C)C4CC4)n(CC(C)(C)O)n3)c2)o1)C1CC1` [Example 6.3, N-((S)-1-Cyclopropylethyl)-2-(3-(5-(((S)-1-Cyclopropylethyl)Carbamoyl)-1-(2-Hydroxy-2-Methylpropyl)-1H-Pyrazol-3-Yl)Phenyl)Oxazole-5-Carboxamide], the pEC50 was 6.60 and the Emax came out at 73%.

In the case of `CCOC(=O)[C@@H](NC(=O)c1cc(-c2cccc(-c3ncc(C(=O)NC(CC)CC)o3)c2)nn1CCN1CCOCC1)C(C)C` [Example 7.0, (S)-Ethyl 3-Methyl-2-(1-(2-Morpholinoethyl)-3-(3-(5-(Pentan-3-Ylcarbamoyl)Oxazol-2-Yl)Phenyl)-1H-Pyrazole-5-Carboxamido)Butanoate], the pEC50 was 6.36 and the Emax stood at 175%.

Regarding `CCC(CC)NC(=O)c1cnc(-c2cccc(-c3cc(C(=O)N[C@@H](C)C4CC4)n(CC(C)(C)O)n3)c2)o1` [Example 8.0, (S)-2-(3-(5-((1-Cyclopropylethyl)Carbamoyl)-1-(2-Hydroxy-2-Methylpropyl)-1H-Pyrazol-3-Yl)Phenyl)-N-(Pentan-3-Yl)Oxazole-5-Carboxamide], the pEC50 was 6.70 and the Emax turned out to be 106%.

In the case of `C[C@H](NC(=O)c1cc(-c2cccc(-c3ncc(C(=O)N[C@H](C)C4CC4)o3)c2)nn1CC(O)C(F)(F)F)C1CC1` (stereo partly drawn) [Example 8.2, N-((R)-1-Cyclopropylethyl)-2-(3-(5-(((S)-1-Cyclopropylethyl)Carbamoyl)-1-(3,3,3-Trifluoro-2-Hydroxypropyl)-1H-Pyrazol-3-Yl)Phenyl)Oxazole-5-Carboxamide], the negative logarithm of the EC50 (pEC50) was 6.35 and the Emax was found to be 119%.

Take `CCC(CC)NC(=O)c1cnc(-c2cccc(-c3cc(C(=O)N[C@@H](C)C4CC4)n(CCOC(C)C)n3)c2)o1` [Example 9.0, (S)-2-(3-(5-((1-Cyclopropylethyl)Carbamoyl)-1-(2-Isopropoxyethyl)-1 H-Pyrazol-3-Yl)Phenyl)-N-(Pentan-3-Yl)Oxazole-5-Carboxamide]: the pEC50 was 6.82 and the Emax came out at 137%.

Take `CCC(CC)NC(=O)c1cnc(-c2cccc(-c3cc(C(=O)N[C@@H](C)C4CC4)n(CC(O)C(F)(F)F)n3)c2)o1` (stereo partly drawn) [Example 9.1, 2-(3-(5-(((S)-1-Cyclopropylethyl)Carbamoyl)-1-(3,3,3-Trifluoro-2-Hydroxypropyl)-1H-Pyrazol-3-Yl)Phenyl)-N-(Pentan-3-Yl)Oxazole-5-Carboxamide]: the pEC50 was 7.10 and the Emax was 155%.

For the molecule `CCC(CC)NC(=O)c1cnc(-c2cccc(-c3cc(C(=O)N[C@@H](C)C4CC4)n(C4COC4)n3)c2)o1` [Example 9.3, (S)-2-(3-(5-((1-Cyclopropylethyl)Carbamoyl)-1-(Oxetan-3-Yl)-1H-Pyrazol-3-Yl)Phenyl)-N-(Pentan-3-Yl)Oxazole-5-Carboxamide], the pEC50 was 6.40 and the Emax came out at 143%.

On to `COC(=O)[C@@H](NC(=O)c1cnc(-c2cccc(-c3cc(C(=O)NC(C4CC4)C4CC4)n(CC(C)(C)O)n3)c2)o1)C(C)C` [Example 9.4, (S)-Methyl 2-(2-(3-(5-((Dicyclopropylmethyl)Carbamoyl)-1-(2-Hydroxy-2-Methylpropyl)-1 H-Pyrazol-3-Yl)Phenyl)Oxazole-5-Carboxamido)-3-Methylbutanoate], for which the pEC50 is 6.38 and the Emax was 105%.

For the molecule `CCC(CC)NC(=O)c1cnc(-c2cccc(-c3cc(C(=O)N[C@@H](C)C4CC4)n(CC(C)O)n3)c2)o1` (stereo partly drawn) [Example 9.5, 2-(3-(5-(((S)-1-Cyclopropylethyl)Carbamoyl)-1-(2-Hydroxypropyl)-1H-Pyrazol-3-Yl)Phenyl)-N-(Pentan-3-Yl)Oxazole-5-Carboxamide], the pEC50 is 6.62 and the Emax stood at 104%.

Turning to `CCOC(=O)[C@@H](NC(=O)c1cnc(-c2cccc(-c3cc(C(=O)NC(C4CC4)C4CC4)n(CC(C)(C)O)n3)c2)o1)C(C)C` [Example 9.6, (S)-Ethyl 2-(2-(3-(5-((Dicyclopropylmethyl)Carbamoyl)-1-(2-Hydroxy-2-Methylpropyl)-1 H-Pyrazol-3-Yl)Phenyl)Oxazole-5-Carboxamido)-3-Methylbutanoate], the negative-log EC50 (pEC50) was 7.52 and the Emax was 100%.

The pEC50 is the negative decadic logarithm of the EC50, by convention in mol/L.

(Values after patent publication US20220306617A1, “SUBSTITUTED 1,3-PHENYL HETEROARYL DERIVATIVES AND THEIR USE IN THE TREATMENT OF DISEASE” (NOVARTIS AG, priority 2019, published 2022).)
